Patent US10246429B2, “Vinyl fluoride cyclopropyl fused thiazin-2-amine compounds as beta-secretase inhibitors and methods of use” (AMGEN INC., priority 2015, dated 2019)

Tests used:
BACE1 [1] = target: T1, BACE1 (Homo sapiens (Human), UniProt P56817); test: BACE1 cell assay; assay type: cell-based
Target sequence in this assay (P56817 46-501, species assumed): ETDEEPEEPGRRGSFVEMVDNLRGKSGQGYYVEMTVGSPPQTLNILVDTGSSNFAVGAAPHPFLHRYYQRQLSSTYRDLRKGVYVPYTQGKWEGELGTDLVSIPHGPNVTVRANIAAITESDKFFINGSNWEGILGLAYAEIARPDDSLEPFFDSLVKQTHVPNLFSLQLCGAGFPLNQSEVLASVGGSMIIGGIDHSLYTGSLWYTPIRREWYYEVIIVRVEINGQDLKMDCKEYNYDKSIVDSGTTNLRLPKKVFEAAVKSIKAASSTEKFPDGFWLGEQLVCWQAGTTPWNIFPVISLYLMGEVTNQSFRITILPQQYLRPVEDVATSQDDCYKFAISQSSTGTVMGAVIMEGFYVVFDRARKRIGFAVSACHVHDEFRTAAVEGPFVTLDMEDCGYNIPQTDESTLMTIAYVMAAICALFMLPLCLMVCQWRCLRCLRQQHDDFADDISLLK

BACE2 = BACE2 (Homo sapiens (Human), UniProt Q9Y5Z0); test: In vitro enzymatic BACE2 FRET assay; assay type: biochemical; details: read-out: IC50 IP (μM) BACE2 Enzyme
Description: (§1) In Vitro Enzymatic BACE1 and BACE2 FRET (Fluorescence Resonance Energy Transfer) Assays (Enzyme Assay Data in Table 1)

Cathepsin D (CatD) = Cathepsin D (CatD) (Homo sapiens (Human), UniProt P07339); test: CatD assay; assay type: biochemical; details: read-out: IC50 IP (μM) CatD
Cathepsin D (CatD), sequence (P07339 65-412, species assumed): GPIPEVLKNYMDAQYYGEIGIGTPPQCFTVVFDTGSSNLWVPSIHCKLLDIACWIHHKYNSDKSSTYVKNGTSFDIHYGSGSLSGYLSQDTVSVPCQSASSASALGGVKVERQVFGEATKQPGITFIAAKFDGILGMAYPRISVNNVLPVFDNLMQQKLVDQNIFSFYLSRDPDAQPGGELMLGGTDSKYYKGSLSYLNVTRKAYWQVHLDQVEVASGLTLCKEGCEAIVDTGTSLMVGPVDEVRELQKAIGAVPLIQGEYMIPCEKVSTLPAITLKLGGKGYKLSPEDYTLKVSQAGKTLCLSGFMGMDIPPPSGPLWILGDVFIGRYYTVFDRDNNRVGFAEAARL

BACE1 [2] = target: T1, BACE1; test: In vitro enzymatic BACE1 FRET assay; assay type: biochemical; details: read-out: IC50 IP (μM) BACE1 Enzyme
Target sequence in this assay (P56817 46-501): as the sequence (P56817 46-501, species assumed) above
Description: as §1

[3] = read-out: IC50 IP (μM) BACE1 Cell

BACE2, sequence (Q9Y5Z0 63-518): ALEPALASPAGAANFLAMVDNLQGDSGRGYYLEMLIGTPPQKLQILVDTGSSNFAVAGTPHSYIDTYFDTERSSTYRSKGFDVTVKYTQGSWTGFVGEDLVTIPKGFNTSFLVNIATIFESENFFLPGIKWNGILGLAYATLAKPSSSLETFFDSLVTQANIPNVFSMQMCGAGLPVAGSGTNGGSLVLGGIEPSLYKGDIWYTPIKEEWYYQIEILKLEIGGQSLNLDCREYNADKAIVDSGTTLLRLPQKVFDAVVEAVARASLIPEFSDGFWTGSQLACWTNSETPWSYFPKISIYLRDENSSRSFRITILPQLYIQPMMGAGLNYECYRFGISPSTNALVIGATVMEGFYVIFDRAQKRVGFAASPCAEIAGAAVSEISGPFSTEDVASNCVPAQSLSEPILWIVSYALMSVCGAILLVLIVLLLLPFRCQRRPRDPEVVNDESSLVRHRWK

Row | IC50 (BACE1 [1]; [3]) [µM] | Structure (SMILES) | IC50 (BACE1 [1]) [µM] | IC50 (BACE2) [µM] | IC50 (Cathepsin D (CatD)) [µM] | IC50 (BACE1 [2]) [µM]
1 | – | C[C@]1(c2cc(/C=C(\F)c3ccc(C#N)cn3)cnc2F)N=C(N)S[C@@]2(C(=O)N3[C@H]4COC[C@@H]3COC4)C[C@H]21 [Example 298, 6-((Z)-2-(5-((1S,5S,6S)-3-amino-1-((1R,5R)-3,7-dioxa-9-azabicyclo[3.3.1]nonane-9-carbonyl)-5-methyl-2-thia-4-azabicyclo[4.1.0]hept-3-en-5-yl)-6-fluoropyridin-3-yl)-1-fluorovinyl)nicotinonitrile] | 0.0173 | – | – | –
2 | – | COC[C@]12C[C@H]1[C@@](C)(c1cc(/C=C(\F)c3ccc(C#N)cn3)ccc1F)N=C(N)S2 [Example 293, 6-((Z)-2-(3-((1S,5S,6S)-3-amino-1-(methoxymethyl)-5-methyl-2-thia-4-azabicyclo[4.1.0]hept-3-en-5-yl)-4-fluorophenyl)-1-fluorovinyl)nicotinonitrile] | – | 0.192 | 400 | 0.0165
3 | 0.0894 | C[C@]1(c2cc(/C=C(\F)c3cnc(C#N)cn3)ccc2F)N=C(N)S[C@]2(CO)[C@H]1C2(F)F [Example 254, 5-((Z)-2-(3-((1S,5S,6R)-3-amino-7,7-difluoro-1-(hydroxymethyl)-5-methyl-2-thia-4-azabicyclo[4.1.0]hept-3-en-5-yl)-4-fluorophenyl)-1-fluorovinyl)pyrazine-2-carbonitrile trifluoromethyl acetate] | – | – | – | –
4 | 0.014 | COc1ncc(/C=C(\F)c2ccc(C#N)cn2)cc1[C@@]1(C)N=C(N)S[C@@]2(C(=O)N3CC[C@@H](F)C3)C[C@H]21 [Example 184, 6-((Z)-2-(5-((1S,5S,6S)-3-amino-1-((R)-3-fluoropyrrolidine-1-carbonyl)-5-methyl-2-thia-4-azabicyclo[4.1.0]hept-3-en-5-yl)-6-methoxypyridin-3-yl)-1-fluorovinyl)nicotinonitrile] | – | 0.34 | 125 | –
5 | – | CNC(=O)[C@]12C[C@H]1[C@@](C)(c1cc(/C=C(\F)c3cc4c(cn3)OCCO4)ccc1F)N=C(N)S2 [Example 249, (1S,5S,6S)-3-amino-5-(5-((Z)-2-(2,3-dihydro-[1,4]dioxino[2,3-c]pyridin-7-yl)-2-fluorovinyl)-2-fluorophenyl)-N,5-dimethyl-2-thia-4-azabicyclo[4.1.0]hept-3-ene-1-carboxamide] | 0.336 | – | – | –
6 | – | C#CCOc1cnc(/C(F)=C/c2ccc(F)c([C@@]3(C)N=C(N)S[C@@]4(COC)C[C@H]43)c2)cn1 [Example 262, (1S,5S,6S)-5-(2-fluoro-5-((Z)-2-fluoro-2-(5-(prop-2-yn-1-yloxy)pyrazin-2-yl)vinyl)phenyl)-1-(methoxymethyl)-5-methyl-2-thia-4-azabicyclo[4.1.0]hept-3-en-3-amine] | – | 0.694 | 317 | –
7 | – | CN(C)C(=O)[C@]12C[C@H]1[C@@](C)(c1cc(/C=C(\F)c3cnc(Br)cn3)ccc1F)N=C(N)S2 [Example 157, (1S,5S,6S)-3-amino-5-(5-((Z)-2-(5-bromopyrazin-2-yl)-2-fluorovinyl)-2-fluorophenyl)-N,N,5-trimethyl-2-thia-4-azabicyclo[4.1.0]hept-3-ene-1-carboxamide] | – | 0.0262 | 39.1 | –
8 | – | CC1CCCN1C(=O)[C@]12C[C@H]1[C@@](C)(c1cc(/C=C(\F)c3ccc(C#N)cn3)ccc1F)N=C(N)S2 (stereo partly drawn) [Example 138, 6-((Z)-2-(3-((1S,5S,6S)-3-amino-5-methyl-1-(2-methylpyrrolidine-1-carbonyl)-2-thia-4-azabicyclo[4.1.0]hept-3-en-5-yl)-4-fluorophenyl)-1-fluorovinyl)nicotinonitrile] | – | 0.0924 | 70.9 | –
9 | – | CNC(=O)[C@]12C[C@H]1[C@@](C)(c1cc(/C=C(\F)c3ccc(C#CC(C)(C)C)cn3)ccc1F)N=C(N)S2 [Example 359, (1S,5S,6S)-3-amino-5-(5-((Z)-2-(5-(3,3-dimethylbut-1-yn-1-yl)pyridin-2-yl)-2-fluorovinyl)-2-fluorophenyl)-N,5-dimethyl-2-thia-4-azabicyclo[4.1.0]hept-3-ene-1-carboxamide] | – | 0.794 | 26 | –
10 | – | Cc1nnc(COc2cnc(/C(F)=C/c3ccc(F)c([C@@]4(C)N=C(N)S[C@@]5(S(C)(=O)=O)C[C@H]54)c3)cn2)o1 [Example 228, (1R,5S,6S)-5-(2-fluoro-5-((Z)-2-fluoro-2-(5-((5-methyl-1,3,4-oxadiazol-2-yl)methoxy)pyrazin-2-yl)vinyl)phenyl)-5-methyl-1-(methylsulfonyl)-2-thia-4-azabicyclo[4.1.0]hept-3-en-3-amine] | – | 0.292 | 46.3 | –
11 | – | C[C@@H]1COCCN1C(=O)[C@]12C[C@H]1[C@@](C)(c1cc(/C=C(\F)c3ccc(C#N)cn3)cnc1F)N=C(N)S2 [Example 290, 6-((Z)-2-(5-((1S,5S,6S)-3-amino-5-methyl-1-((R)-3-methylmorpholine-4-carbonyl)-2-thia-4-azabicyclo[4.1.0]hept-3-en-5-yl)-6-fluoropyridin-3-yl)-1-fluorovinyl)nicotinonitrile] | – | 0.229 | 400 | –
12 | – | CN(C)[C@@H]1CCN(C(=O)[C@]23C[C@H]2[C@@](C)(c2cc(/C=C(\F)c4ccc(C#N)cn4)ccc2F)N=C(N)S3)C1 [Example 134, 6-((Z)-2-(3-((1S,5S,6S)-3-amino-1-((R)-3-(dimethylamino)pyrrolidine-1-carbonyl)-5-methyl-2-thia-4-azabicyclo[4.1.0]hept-3-en-5-yl)-4-fluorophenyl)-1-fluorovinyl)nicotinonitrile] | – | 0.8 | 400 | –
13 | – | C#CCOc1cnc(/C(F)=C/c2cnc(F)c([C@@]3(C)N=C(N)S[C@@]4(C(=O)O)C[C@H]43)c2)cn1 [Example 285, (1S,5S,6S)-3-amino-5-(2-fluoro-5-((Z)-2-fluoro-2-(5-(prop-2-yn-1-yloxy)pyrazin-2-yl)vinyl)pyridin-3-yl)-5-methyl-2-thia-4-azabicyclo[4.1.0]hept-3-ene-1-carboxylic acid] | – | 6.35 | 316 | –
14 | – | CN(C)C(=O)[C@]12C[C@H]1[C@@](C)(c1cc(/C=C(\F)c3ccc(C#N)nn3)ccc1F)N=C(N)S2 [Example 174, (1S,5S,6S)-3-amino-5-(5-((Z)-2-(6-cyanopyridazin-3-yl)-2-fluorovinyl)-2-fluorophenyl)-N,N,5-trimethyl-2-thia-4-azabicyclo[4.1.0]hept-3-ene-1-carboxamide] | – | 0.406 | 280 | –
15 | – | C[C@]1(c2cc(/C=C(\F)c3ccc(C#N)cn3)ccc2F)N=C(N)S[C@@]2(C(=O)N3CC4CC3CO4)C[C@H]21 (stereo partly drawn) [Example 132, 6-((Z)-2-(3-((1S,5S,6S)-3-amino-1-(2-oxa-5-azabicyclo[2.2.1]heptane-5-carbonyl)-5-methyl-2-thia-4-azabicyclo[4.1.0]hept-3-en-5-yl)-4-fluorophenyl)-1-fluorovinyl)nicotinonitrile] | – | 0.0758 | 1690 | –
16 | – | C[C@]1(c2cc(/C=C(\F)c3cnc(C#N)cn3)ccc2F)N=C(N)S[C@@]2(C(=O)N3CCOCC3)C[C@H]21 [Example 200, 5-((Z)-2-(3-((1S,5S,6S)-3-amino-5-methyl-1-(morpholine-4-carbonyl)-2-thia-4-azabicyclo[4.1.0]hept-3-en-5-yl)-4-fluorophenyl)-1-fluorovinyl)pyrazine-2-carbonitrile] | 0.004 | – | – | 0.001
